Columns and labels:
[1] = tested on: clinical isolates of A. baumannii; assay: MIC for clinical isolates in CAMHB media (Table 3); format: cell-based; settings: Acinetobacter baumannii
Method: Individual MICs were determined following the microdilution method recommended by CLSI in cationic-adjusted Mueller-Hinton Broth (CAMHB), or M9 media. […] Tests were performed in triplicate. MIC of iron chelators were determined for noscomial ESKAPE pathogens.

[2] = tested on: clinical isolates of A. baumannii; assay: MIC for clinical isolates in RPMI (low iron) media (Table 4); format: cell-based; parameters: key to MIC of Iron Chelators: NG = no growth in table 4; settings: for MIC: Acinetobacter baumannii
Method: […] […] Tests were performed in triplicate. MIC of iron chelators were determined for noscomial ESKAPE pathogens.
For a number of strains, the iron chelators produced no growth of bacteria (NG).

[3] = tested on: A. baumannii strain AB19606; assay: Growth (OD600) with chelator, Rifampin or both; format: cell-based; settings: CAMHB
Method: A. baumannii strain AB19606 was grown in CAMHB and challenged with 1.5×MIC compound 4 (Var) or 1.5×MIC Triapine (Tri) with or without 0.75×MIC Rifampin (Rif). Growth was estimated by absorbance at 600 nm (y-axis) at 0 or 24 hours.

E. coli strain EC35218 = assay: Growth (OD600) with chelator, Rifampin or both; format: cell-based; settings: CAMHB
Method: E. coli strain EC35218 was grown in CAMHB and challenged with 1.5×MIC compound 4 (Var) or 1.5×MIC Triapine (Tri) with or without 0.75×MIC Rifampin (Rif). Growth was estimated by absorbance at 600 nm (y-axis) at 0 or 24 hours.

[4] = tested on: A. baumannii, strain AB5711; assay: Growth curves (OD600) in CAMHB with compound 4; format: cell-based
Excerpt: It should be noted that the inhibition occurred in a dose-responsive manner.

[5] = Stability in aqueous solution; format: physicochemical
[6] = AB3638, read-out: MIC of Iron Chelators
[7] = AB3785, read-out: MIC of Iron Chelators
[8] = AB3806, read-out: MIC of Iron Chelators
[9] = AB3917, read-out: MIC of Iron Chelators
[10] = AB4025, read-out: MIC of Iron Chelators
[11] = AB4026, read-out: MIC of Iron Chelators
[12] = AB4027, read-out: MIC of Iron Chelators
[13] = AB4052, read-out: MIC of Iron Chelators
[14] = AB4269, read-out: MIC of Iron Chelators
[15] = AB4448, read-out: MIC of Iron Chelators
[16] = AB4456, read-out: MIC of Iron Chelators
[17] = AB4490, read-out: MIC of Iron Chelators
[18] = AB4498, read-out: MIC of Iron Chelators
[19] = AB4795, read-out: MIC of Iron Chelators
[20] = AB4857, read-out: MIC of Iron Chelators
[21] = AB4878, read-out: MIC of Iron Chelators
[22] = AB4932, read-out: MIC of Iron Chelators
[23] = AB4957, read-out: MIC of Iron Chelators
[24] = AB4991, read-out: MIC of Iron Chelators
[25] = AB5001, read-out: MIC of Iron Chelators
[26] = AB5075, read-out: MIC of Iron Chelators
[27] = AB5197, read-out: MIC of Iron Chelators
[28] = AB5256, read-out: MIC of Iron Chelators
[29] = AB5674, read-out: MIC of Iron Chelators
[30] = AB5711, read-out: MIC of Iron Chelators
[31] = 1.5×MIC chelator in combination with 0.75×MIC Rifampin
[32] = alone: 1.5×MIC chelator or 0.75×MIC Rifampin

## OCCN1CCN(CCc2ccc(O)c3ncccc23)CC1 [Compound 4, 5-(2-(4-(2-hydroxyethyl)piperazin-1-yl)ethyl)-8-quinolinol]
[1]; AB967, read-out: MIC of Iron Chelators
  MIC: 500 µg/mL
[1]; AB2828, read-out: MIC of Iron Chelators
  MIC: 500 µg/mL
[1]; AB3340, read-out: MIC of Iron Chelators
  MIC: 500 µg/mL
[1]; AB3560, read-out: MIC of Iron Chelators
  MIC: 500 µg/mL
[1]; [6]
  MIC: 500 µg/mL
[1]; [7]
  MIC: 500 µg/mL
[1]; [8]
  MIC: 1000 µg/mL
[1]; [9]
  MIC: 500 µg/mL
[1]; AB3927, read-out: MIC of Iron Chelators
  MIC: 500 µg/mL
[1]; [10]
  MIC: 500 µg/mL
[1]; [11]
  MIC: 500 µg/mL
[1]; [12]
  MIC: 500 µg/mL
[1]; [13]
  MIC: 1000 µg/mL
[1]; [14]
  MIC: 500 µg/mL
[1]; [15]
  MIC: 500 µg/mL
[1]; [16]
  MIC: 500 µg/mL
[1]; [17]
  MIC: 500 µg/mL
[1]; [18]
  MIC: 500 µg/mL
[1]; [19]
  MIC: 500 µg/mL
[1]; [20]
  MIC: 500 µg/mL
[1]; [21]
  MIC: 500 µg/mL
[1]; [22]
  MIC: 500 µg/mL
[1]; [23]
  MIC: 500 µg/mL
[1]; [24]
  MIC: 500 µg/mL
[1]; [25]
  MIC: 500 µg/mL
[1]; [26]
  MIC: 500 µg/mL
[1]; [27]
  MIC: 500 µg/mL
[1]; [28]
  MIC: 500 µg/mL
[1]; [29]
  MIC: 500 µg/mL
[1]; [30]
  MIC: 500 µg/mL
[2]; AB967
  MIC of Iron Chelators: NG
[2]; AB2828
  MIC of Iron Chelators: NG
[2]; AB3340
  MIC of Iron Chelators: NG
[2]; AB3560
  MIC of Iron Chelators: NG
[2]; AB3927
  MIC of Iron Chelators: NG
[2]; [6]
  MIC: 64 µg/mL
[2]; [7]
  MIC: 32 µg/mL
[2]; [8]
  MIC: 32 µg/mL
[2]; [9]
  MIC: 32 µg/mL
[2]; [10]
  MIC: 32 µg/mL
[2]; [11]
  MIC: 32 µg/mL
[2]; [12]
  MIC: 32 µg/mL
[2]; [13]
  MIC: 64 µg/mL
[2]; [14]
  MIC: 32 µg/mL
[2]; [15]
  MIC: 64 µg/mL
[2]; [16]
  MIC: 32 µg/mL
[2]; [17]
  MIC: 32 µg/mL
[2]; [18]
  MIC: 64 µg/mL
[2]; [19]
  MIC: 32 µg/mL
[2]; [20]
  MIC: 64 µg/mL
[2]; [21]
  MIC: 64 µg/mL
[2]; [22]
  MIC: 125 µg/mL
[2]; [23]
  MIC: 125 µg/mL
[2]; [24]
  MIC: 8 µg/mL
[2]; [25]
  MIC: 32 µg/mL
[2]; [26]
  MIC: 64 µg/mL
[2]; [27]
  MIC: 32 µg/mL
[2]; [28]
  MIC: 125 µg/mL
[2]; [29]
  MIC: 32 µg/mL
[2]; [30]
  MIC: 64 µg/mL
[3]; [31]
  reduction of bacteria (absorbance at 600 nm, 24 hours): significant reduction in bacteria
[3]; [32]
  reduction of bacteria (absorbance at 600 nm, 24 hours): no reduction of bacteria
E. coli strain EC35218; [31]
  reduction of bacteria (absorbance at 600 nm, 24 hours): significant reduction in bacteria
E. coli strain EC35218; [32]
  reduction of bacteria (absorbance at 600 nm, 24 hours): did not result in a reduction of bacteria
[4]
  OD600 (growth curves): dramatically reduced
[5]
  stability in aqueous solution: highly stable
